Read-outs that look alike come from different tables or passages of the source. Where a SMILES comes first, the peptide text is derived from it. [ ]: non-standard residue; d: D form. The star is where a group is joined. Nle = CCCC[CH](N)C(=O)O; Cbz = O=C(OCc1ccccc1)*

Usually EC50 stands for the concentration needed to bring the measured effect to its halfway point.

Assay [1] concerns SARS-CoV-2 B.1.351 (Beta) variant pseudovirus. In words: organism not typed. Type of assay: cell-based. The conditions noted are these: Huh-7, read-out: EC50, inhibition of SARS-CoV-2 B.1.351 (Beta) variant pseudovirus infection.
For assay [2] the test system is unchanged. The experiment in a line: organism not typed. The conditions noted are these: A549, read-out: EC50, inhibition of SARS-CoV-2 B.1.351 (Beta) variant pseudovirus infection. Type of assay: cell-based.

With `CC(NC(=O)C(Cc1ccccc1)NC(=O)OCc1ccccc1)C(=O)CF` (stereo not shown) [Z-FA-FMK], the EC50 in assay [1] amounted to 10 µM; in assay [2] it was 5.31 µM.

Consider `CC(C)C[C@@H](C=O)NC(=O)[C@H](CC(C)C)NC(=O)[C@H](CC(C)C)NC(=O)OCc1ccccc1` [Mg-132] (Cbz-Leu-Leu-Leu-aldehyde), for which the EC50 was 0.901 µM in assay [1] and 0.908 µM in assay [2].

`CCCCC(C=O)NC(=O)C(CC(C)C)NC(=O)C(CC(C)C)NC(C)=O` (stereo not drawn) [Mg-101] (Ac-Leu-Leu-[Nle]-aldehyde; configuration not given here): the values for the EC50 in assay [1] and in assay [2] were 0.86 µM and 1.89 µM, respectively.

In the case of `CC(=O)N[C@@H](CC(C)C)C(=O)N[C@@H](CC(C)C)C(=O)N[C@H](C=O)CCCNC(=N)N` [leupeptin hemisulfate], the figures for the EC50 in assay [1] and in assay [2] were 17.1 µM and 7.71 µM, respectively.

`CCCC[C@@H](C=O)NC(=O)[C@H](CC(C)C)NC(=O)OCc1ccccc1` [calpeptin]: the EC50 in assay [1] stood at 23.9 µM; in assay [2], 36.4 µM.

Source of the values: publication PMC9110316 (Computational and Structural Biotechnology Journal, 2022).
